Test results from patent US10239832B2, “N-(1-hydroxy-3-(pyrrolidinyl)propan-2-yl)pyrrolidine-3-carboxamide derivatives as glucosylceramide synthase inhibitors” (BIOMARIN PHARMACEUTICAL INC., priority 2013, dated 2019).

Each molecule was assayed against T1, GCS (Canis lupus familiaris, UniProt A0A8I3MXG6) (assay: GCS enzymatic assay (MDCK cell lysate, NBD-ceramide to glucosylceramide, LC/MS)). Details: Table 2; class symbols A, B, C; the table does not say which of the assays; read-out: Data Range (IC50 values).
T1 construct: endogenous in cells; host or cells: MDCK (Madin-Darby canine kidney) cells, whole-cell lysate
T1 sequence (A0A8I3MXG6 1-394): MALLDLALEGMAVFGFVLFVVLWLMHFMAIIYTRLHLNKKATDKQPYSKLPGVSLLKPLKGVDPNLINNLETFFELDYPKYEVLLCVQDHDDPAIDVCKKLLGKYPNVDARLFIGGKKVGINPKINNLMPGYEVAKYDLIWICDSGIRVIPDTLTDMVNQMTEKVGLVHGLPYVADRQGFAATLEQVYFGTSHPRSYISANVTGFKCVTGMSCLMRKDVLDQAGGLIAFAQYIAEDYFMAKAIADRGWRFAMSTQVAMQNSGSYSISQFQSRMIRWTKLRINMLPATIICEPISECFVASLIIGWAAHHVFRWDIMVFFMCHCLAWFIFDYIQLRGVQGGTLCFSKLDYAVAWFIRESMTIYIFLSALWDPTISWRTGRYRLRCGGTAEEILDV
Format: biochemical, canine
How it was run: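 Dog MDCK cell lysate served as enzyme source, with NBD-ceramide turned over to glucosylceramide and 0.1% DMSO as mock control. The reaction was stopped with acetonitrile. Both lipids were quantified by LC/MS/MS in ESI positive MRM mode against a tolbutamide internal standard, giving IC50 or percent inhibition.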

Row | IC50 | SMILES
1 | 1 to 30 nM | O=C(N[C@H](CN1CCCC1)[C@H](O)c1cc(F)c2c(c1)OCCO2)[C@@H]1CCN(c2cccc(Oc3ccc(Cl)cc3)n2)C1 [Compound 114, (R)-1-(6-(4-chlorophenoxy)pyridin-2-yl)-N((1R,2R)-1-(8-fluoro-2,3-dihydrobenzo[b][1,4]dioxin-6-yl)-1-hydroxy-3-(pyrrolidin-1-yl)propan-2-yl)pyrrolidine-3-carboxamide]
2 | 1 to 30 nM | O=C(N[C@H](CN1CCCC1)[C@H](O)c1ccc(OC2CC2)c(Cl)c1)[C@@H]1CCN(c2cccc(Oc3ccc(F)cc3)n2)C1 [Compound 115, (R)-N-((1R,2R)-1-(3-chloro-4-cyclopropoxyphenyl)-1-hydroxy-3-(pyrrolidin-1-yl)propan-2-yl)-1-(6-(4-fluorophenoxy)pyridin-2-yl)pyrrolidine-3-carboxamide]
3 | 1 to 30 nM | O=C(N[C@H](CN1CCCC1)[C@H](O)c1cc(F)c2c(c1)OCCO2)[C@@H]1CCN(c2cccc(Oc3ccc(F)cc3)n2)C1 [Compound 116, (R)-N-((1R,2R)-1-(8-fluoro-2,3-dihydrobenzo[b][1,4]dioxin-6-yl)-1-hydroxy-3-(pyrrolidin-1-yl)propan-2-yl)-1-(6-(4-fluorophenoxy)pyridin-2-yl)pyrrolidine-3-carboxamide]
4 | 1 to 30 nM | O=C(N[C@H](CN1CCCC1)[C@H](O)c1ccc(OC2COC2)c(Cl)c1)[C@@H]1CCN(c2ccc3cc(F)ccc3c2)C1 [Compound 117, (R)-N-((1R,2R)-1-(3-chloro-4-(oxetan-3-yloxy)phenyl)-1-hydroxy-3-(pyrrolidin-1-yl)propan-2-yl)-1-(6-fluoronaphthalen-2-yl)pyrrolidine-3-carboxamide]
5 | 1 to 30 nM | O=C(N[C@H](CN1CCCC1)[C@H](O)c1ccc(OC2CC2)c(Cl)c1)[C@@H]1CCN(c2cc(Oc3ccccn3)ccc2Cl)C1 [Compound 118, (R)-N-((1R,2R)-1-(3-chloro-4-cyclopropoxyphenyl)-1-hydroxy-3-(pyrrolidin-1-yl)propan-2-yl)-1-(2-chloro-5-(pyridin-2-yloxy)phenyl)pyrrolidine-3-carboxamide]
6 | 1 to 30 nM | O=C(N[C@H](CN1CCCC1)[C@H](O)c1ccc2c(c1)OCCO2)[C@@H]1CCN(c2cccc(Oc3ccc(F)cc3)n2)C1 [Compound 119, (R)-N-((1R,2R)-1-(2,3-dihydrobenzo[b][1,4]dioxin-6-yl)-1-hydroxy-3-(pyrrolidin-1-yl)propan-2-yl)-1-(6-(4-fluorophenoxy)pyridin-2-yl)pyrrolidine-3-carboxamide]
7 | 1 to 30 nM | O=C(N[C@H](CN1CCC1)[C@H](O)c1ccc(OC2COC2)c(Cl)c1)[C@@H]1CCN(c2ccc3cc(F)ccc3c2)C1 [Compound 122, (R)-N-((1R,2R)-3-(azetidin-1-yl)-1-(3-chloro-4-(oxetan-3-yloxy)phenyl)-1-hydroxypropan-2-yl)-1-(6-fluoronaphthalen-2-yl)pyrrolidine-3-carboxamide]
8 | 1 to 30 nM | O=C(N[C@H](CN1CCCC1)[C@H](O)c1ccc2c(c1)OCCO2)[C@@H]1CCN(c2cccc(-c3ccc(F)cc3)n2)C1 [Compound 123, (R)-N-((1R,2R)-1-(2,3-dihydrobenzo[b][1,4]dioxin-6-yl)-1-hydroxy-3-(pyrrolidin-1-yl)propan-2-yl)-1-(6-(4-fluorophenyl)pyridin-2-yl)pyrrolidine-3-carboxamide]
9 | 1 to 30 nM | O=C(N[C@H](CN1CCCC1)[C@H](O)c1cc(F)c2c(c1)OCCO2)[C@@H]1CCN(c2cccc(-c3ccc(F)cc3)n2)C1 [Compound 124, (R)-N-((1R,2R)-1-(8-fluoro-2,3-dihydrobenzo[b][1,4]dioxin-6-yl)-1-hydroxy-3-(pyrrolidin-1-yl)propan-2-yl)-1-(6-(4-fluorophenyl)pyridin-2-yl)pyrrolidine-3-carboxamide]
10 | 1 to 30 nM | O=C(N[C@H](CN1CCCC1)[C@H](O)c1ccc(OC2CC2)c(Cl)c1)[C@@H]1CCN(c2cccc(-c3ccc(F)cc3)n2)C1 [Compound 126, (R)-N-((1R,2R)-1-(3-chloro-4-cyclopropoxyphenyl)-1-hydroxy-3-(pyrrolidin-1-yl)propan-2-yl)-1-(6-(4-fluorophenyl)pyridin-2-yl)pyrrolidine-3-carboxamide]
11 | 1 to 30 nM | O=C(N[C@H](CN1CCCC1)[C@H](O)c1ccc(OC2CC2)c(Cl)c1)[C@@H]1CCN(c2ccc(Cl)c(Oc3ccc(F)cc3)c2)C1 [Compound 128, (R)-1-(4-chloro-3-(4-fluorophenoxy)phenyl)-N-((1R,2R)-1-(3-chloro-4-cyclopropoxyphenyl)-1-hydroxy-3-(pyrrolidin-1-yl)propan-2-yl)pyrrolidine-3-carboxamide]
12 | 1 to 30 nM | Cc1cccc(Oc2cc(N3CC[C@@H](C(=O)N[C@H](CN4CCCC4)[C@H](O)c4ccc(OC5CC5)c(Cl)c4)C3)ccc2Cl)n1 [Compound 131, (R)-1-(4-chloro-3-((6-methylpyridin-2-yl)oxy)phenyl)-N-((1R,2R)-1-(3-chloro-4-cyclopropoxyphenyl)-1-hydroxy-3-(pyrrolidin-1-yl)propan-2-yl)pyrrolidine-3-carboxamide]
13 | 1 to 30 nM | Cn1ncc2ccc(N3CC[C@@H](C(=O)N[C@H](CN4CCCC4)[C@H](O)c4cc(F)c5c(c4)OCCO5)C3)cc21 [Compound 132, (R)-N-((1R,2R)-1-(8-fluoro-2,3-dihydrobenzo[b][1,4]dioxin-6-yl)-1-hydroxy-3-(pyrrolidin-1-yl)propan-2-yl)-1-(1-methyl-1H-indazol-6-yl)pyrrolidine-3-carboxamide]
14 | 1 to 30 nM | Cn1ncc2ccc(N3CC[C@@H](C(=O)N[C@H](CN4CCCC4)[C@H](O)c4ccc(OC5CC5)c(Cl)c4)C3)cc21 [Compound 133, (R)-N-((1R,2R)-1-(3-chloro-4-cyclopropoxyphenyl)-1-hydroxy-3-(pyrrolidin-1-yl)propan-2-yl)-1-(1-methyl-1H-indazol-6-yl)pyrrolidine-3-carboxamide]
15 | 1 to 30 nM | Cn1ncc2ccc(N3CC[C@@H](C(=O)N[C@H](CN4CCC4)[C@H](O)c4cc(F)c5c(c4)OCCO5)C3)cc21 [Compound 134, (R)-N-((1R,2R)-3-(azetidin-1-yl)-1-(8-fluoro-2,3-dihydrobenzo[b][1,4]dioxin-6-yl)-1-hydroxypropan-2-yl)-1-(1-methyl-1H-indazol-6-yl)pyrrolidine-3-carboxamide]

Row | SMILES | IC50
16 | CC(C)(C)Oc1ccc([C@@H](O)[C@@H](CN2CCCC2)NC(=O)[C@@H]2CCN(c3ccc(Cl)cc3)C2)cc1Cl [Compound 135, (R)-N-((1R,2R)-1-(4-(tert-butoxy)-3-chlorophenyl)-1-hydroxy-3-(pyrrolidin-1-yl)propan-2-yl)-1-(4-chlorophenyl)pyrrolidine-3-carboxamide] | 1 to 30 nM

Same assay, conditions: Table 2; class symbols D, E, F, NA (not active); the table does not say which of the assays

Row | Data Range (% inhibition) | SMILES
17 | F (1-49% (or less than 50%)) | O=C(N[C@H](CN1CCCC1)[C@H](O)c1cc(F)c2c(c1)OCCO2)[C@@H]1CCN(C(=O)c2ccccc2)C1 [Compound 120, (R)-1-benzoyl-N-((1R,2R)-1-(8-fluoro-2,3-dihydrobenzo[b][1,4]dioxin-6-yl)-1-hydroxy-3-(pyrrolidin-1-yl)propan-2-yl)pyrrolidine-3-carboxamide]
18 | E (50-74% (or less than 75%)) | Cn1ncc2cc(N3CC[C@@H](C(=O)N[C@H](CN4CCCC4)[C@H](O)c4cc(F)c5c(c4)OCCO5)C3)ccc21 [Compound 125, (R)-N-((1R,2R)-1-(8-fluoro-2,3-dihydrobenzo[b][1,4]dioxin-6-yl)-1-hydroxy-3-(pyrrolidin-1-yl)propan-2-yl)-1-(1-methyl-1H-indazol-5-yl)pyrrolidine-3-carboxamide]
19 | E (50-74% (or less than 75%)) | Cn1ncc2cc(N3CC[C@@H](C(=O)N[C@H](CN4CCCC4)[C@H](O)c4ccc(OC5CC5)c(Cl)c4)C3)ccc21 [Compound 127, (R)-N-((1R,2R)-1-(3-chloro-4-cyclopropoxyphenyl)-1-hydroxy-3-(pyrrolidin-1-yl)propan-2-yl)-1-(1-methyl-1H-indazol-5-yl)pyrrolidine-3-carboxamide]
20 | F (1-49% (or less than 50%)) | O=C(N[C@H](CN1CCCC1)[C@H](O)c1ccc(OC2CC2)c(Cl)c1)[C@@H]1CCN(C(=O)c2ccccc2)C1 [Compound 129, (R)-1-benzoyl-N-((1R,2R)-1-(3-chloro-4-cyclopropoxyphenyl)-1-hydroxy-3-(pyrrolidin-1-yl)propan-2-yl)pyrrolidine-3-carboxamide]
21 | E (50-74% (or less than 75%)) | O=C(N[C@H](CN1CCCC1)[C@H](O)c1ccc2c(c1F)OCCO2)[C@@H]1CCN(c2ccc(Cl)cc2)C1 [Compound 130, (R)-1-(4-chlorophenyl)-N-((1R,2R)-1-(5-fluoro-2,3-dihydrobenzo[b][1,4]dioxin-6-yl)-1-hydroxy-3-(pyrrolidin-1-yl)propan-2-yl)pyrrolidine-3-carboxamide]

Row | SMILES | Data Range (% inhibition)
22 | O=C(N[C@H](CN1CCCC1)[C@H](O)c1ccc2c(c1)OCCO2)[C@@H]1CCN(C(=O)c2ccccc2)C1 [Compound 121, (R)-1-benzoyl-N-((1R,2R)-1-(2,3-dihydrobenzo[b][1,4]dioxin-6-yl)-1-hydroxy-3-(pyrrolidin-1-yl)propan-2-yl)pyrrolidine-3-carboxamide] | NA (not active—a negative value was generated for % inhibition)
